In patent US20240277653A1, “USE OF FURANCARBOXYLIC ACIDS IN THE PREPARATION OF ADDITIVES FOR ANIMAL FEEDS” (ANIPHA TECHNOLOGIES PTY LTD, priority 2021, published 2024):

Legend:
weaned piglets = assay: Effects of furancarboxylic acids on performance of weaned piglets; format: in vivo, Duroc-landrace-yorkshire swine; conditions: 65-day-old pigs, basal diet comprising 2000 ppm test article, 28 days, mean
Text: A total of 120 65-day-old Duroc-landrace-yorkshire swine with similar body weight were randomly divided into 4 groups, each with 3 replicates, half male and female, […]. The pigpen and utensils were disinfected before the test. During the period of test, pigs were kept in separate pens under the same feeding and management conditions. During the test, the test pigs were fed with food and water ad libitum, and were fed twice a day. The test groups are shown in Table 1, among which, group I was the control group, and was only fed with the basal diet; test groups II, III and IV were fed with the basal diet comprising 2000 ppm of a compound of furancarboxylic acids shown in Table 1, respectively. […] The test lasted 28 days, and the performances of the test pigs, for example, the average daily feed intake (ADFI, g/d*pig), average daily weight gain (ADG, g/d*pig) and feed conversion ratio (FCR) of each pig were counted.

grass carp fingerlings = assay: Use of furancarboxylic acids in a feed for fish (grass carp growth-promoting test); format: in vivo; conditions: 500 ppm in test feed, 8 weeks; for Weight gain: 100×(final−initial)/initial weight; for FCR (feed conversion rate): feed intake/weight gain
Method: Test fish: The test fish used were the healthy and lively grass carp fingerlings of the same year and were reared in a large cage (4×2×1.5 m^3) for 4 weeks before being used for formal breeding tests. The experimental system was a small floating cage (with size of 1.1×1.1×1.1 m^3); each small cage is equipped with a bubbling head, and bubbling 24 hours a day. The small cages and the temporary cages were placed in a test facility, a 3500 m^2 pond, the pond depth was about 1.5 m, and the pond water was fully aerated bottom water. During the test, 240 grass carps that had been starved for 1 day were randomly divided into 3 groups, each group was provided with 4 replicates, and 20 fish were placed in each replicate. Each replicate was weighed and placed into 12 cages, respectively fed with a test feed supplemented with a compound of furancarboxylic acids.
Test feed: The test feed was prepared according to the formula in Table 3, and 500 ppm of a compound of furancarboxylic acids were added to different test groups according to Table 4. The feedstuff used was ultrafinely grinded and then passed through the Jiangsu Muyang extruder to make a floating extruded feed with a particle size of 3 mm. The mold release temperature was 130° C., and 3% soybean oil was sprayed externally through the oil injection equipment, and sealed in a cool place for use.
Procedures: The experiment adopts artificial food restriction feeding, the feeding amount is adjusted once a week, the feeding level (based on the initial body weight) of each group is exactly the same, feeding twice a day (at 7:30 am and 15:00 pm), and the total feeding amount is 580 g per replicate. The test lasted 8 weeks. The water quality was monitored regularly during the test. The water temperature was 26.88±3.08° C., with DO>5.0 mg O L^−1, pH 7.8, ammonia nitrogen <0.50 mg N L^−1, and nitrite nitrogen <0.05 mg N L^−1 during the whole breeding process.
Parameter statistics: During the test, the fish in each cage were weighed as a whole 1 day of stopping feeding, and their weight gain (WG, %), feed conversion rate (FCR) and survival rate (SR, %) were calculated as follows:
Weight gain (WG, %)=100×(average final weight−average initial weight)/average initial weight;
Feed conversion rate (FCR)=feed intake/weight gain of fish;
Survival rate (SR, %)=100×number of fish at the end of the experiment/number of fish at the beginning of the experiment.

[1] = system: yellow-feathered broilers; assay: Use of furancarboxylic acids in a feed for chicken (broiler performance); format: in vivo; conditions: 1-day-old broilers, basal diet comprising 1000 ppm test article, 20 days, mean
Text: This experiment adopted a single-factor randomization design. 480 1-day-old broilers with an average body weight of 50 g were selected and randomly divided into 4 groups, with 6 replicates in each group, half male and female, 20 yellow-feathered broilers per replicate. The chicken house and utensils were disinfected before the test. During the period of test, broilers were kept in cages under the same feeding and management conditions. The basal diet is mainly based on corn-soybean meal, and other antioxidants and growth promoters are not added during the whole feeding. The test groups are shown in Table 2, among which, group I was the control group, and was only fed with the basal diet; test groups II, III and IV were fed with the basal diet comprising 1000 ppm of a compound of furancarboxylic acids shown in Table 2, respectively. The test lasted 20 days, and the test broilers were fed with food and water ad libitum, and were fed twice a day. Test broilers in each replicate were weighed at 21 days of age (stop feeding for 12 hours and keep water). The feed consumption of the test broilers was counted, and the average daily feed intake (ADFI, g/d*broiler), average daily weight gain (ADG, g/d*broiler) and feed conversion ratio (FCR) of each test broiler were calculated.

O=C(O)c1ccco1 [2-Furancarboxylic acid]
ADFI (average daily feed intake) (weaned piglets): 1274 g/d*pig | ADG (average daily weight gain) (weaned piglets): 512 g/d*pig | FCR (feed conversion ratio) (weaned piglets): 2.489 | Average final weight (grass carp fingerlings): 586.87 g | SR (survival rate) (grass carp fingerlings): 82.50% | Weight gain (grass carp fingerlings): 134.96% | FCR (feed conversion rate) (grass carp fingerlings): 1.48 | ADFI (average daily feed intake) [1]: 35.2 g/d*broiler | ADG (average daily weight gain) [1]: 16.9 g/d*broiler | FCR (feed conversion ratio) [1]: 2.08

O=C(O)c1coc(C(=O)O)c1 [2,4-Furandicarboxylic acid]
ADFI (average daily feed intake) (weaned piglets): 1263 g/d*pig | ADG (average daily weight gain) (weaned piglets): 507 g/d*pig | FCR (feed conversion ratio) (weaned piglets): 2.490 | ADFI (average daily feed intake) [1]: 36.5 g/d*broiler | ADG (average daily weight gain) [1]: 17.4 g/d*broiler | FCR (feed conversion ratio) [1]: 2.10

O=C(O)c1ccoc1 [3-Furancarboxylic acid]
ADFI (average daily feed intake) (weaned piglets): 1240 g/d*pig | ADG (average daily weight gain) (weaned piglets): 498 g/d*pig | FCR (feed conversion ratio) (weaned piglets): 2.491 | Average final weight (grass carp fingerlings): 589.33 g | SR (survival rate) (grass carp fingerlings): 83.75% | Weight gain (grass carp fingerlings): 138.98% | FCR (feed conversion rate) (grass carp fingerlings): 1.48 | ADFI (average daily feed intake) [1]: 34.0 g/d*broiler | ADG (average daily weight gain) [1]: 16.4 g/d*broiler | FCR (feed conversion ratio) [1]: 2.07
